Like-named read-outs stand apart in the source and are kept apart here.
Legend:
[1] = system: serum amyloid A protein (SAA); assay: Clinical study in haemodialysis patients: plasma SAA (immuno-nephelometry, N Latex SAA); assay type: in vivo, human; details: for SAA MW (mean) / SAA Median: plasma, haemodialysis patients
Description: (§1) For the individual patient, the values before therapy were compared, pair-wise, with those after 3 and 6 weeks of therapy.

C-reactive protein (CRP) = assay: Clinical study in haemodialysis patients: plasma CRP (immuno-nephelometry, N High Sensitivity CRP); assay type: in vivo, human; details: for CRP Median / CRP MW (mean): plasma, haemodialysis patients
Description: as §1

[2] = system: homocysteine (total) (Hcys); assay: Clinical study in haemodialysis patients: plasma homocysteine (total); assay type: in vivo, human
Protocol: For the patients for whom all the measured values could be ascertained completely at any time, a “matched pair” analysis was performed in addition. For the individual patient, the values before therapy were compared, pair-wise, with those after 3 and 6 weeks of therapy.

[3] = system: inflammation markers CRP and SAA; details: haemodialysis patients, 6 weeks of folate therapy
Description: Clinical data were obtained via the prospective, randomised double blind study described below.
141 patients with terminal renal insufficiency, who were being treated with chronic haemodialysis on 3 days each week, and who were between 24 and 90 years old, were divided randomly into 4 therapy groups according to the sex of the patient and the presence or absence of a C677T point mutation on the gene for methylene tetrahydrofolate reductase. Randomisation based on the methylene tetrahydrofolate reductase mutation was effected in order to prevent an imbalance occurring within the individual therapy groups with regard to enzyme activity and thus with regard to folic acid metabolism also. […]
The first blood sample in the study was taken before the commencement of the administration of additional vitamins. […] The following measured quantities were each determined from plasma samples from the 3 blood samples taken: • homocysteine (total) (Hcys) • total folate (Fol) • vitamin B12 (B12) • vitamin B6 (B6) • neopterin (NEOP) • creatinine (Krea) • LDL- and HDL-cholesterol (HDL-Choi, LDL-Chol) • triglyceride (TG) • C-reactive protein (CRP) • amyloid A protein (SAA) […]
CRP and SAA were both measured by means of immuno-nephelometry and tests supplied by DadeBehring (N High Sensitivity CRP and N Latex SAA assays).

[4] = 3 w vs 6 w, value after 3 weeks vs value after 6 weeks
[5] = BL vs 3 w, initial value vs value after 3 weeks
[6] = BL vs 6 w, initial value vs value after 6 weeks
[7] = BL baseline before folate therapy
[8] = BL baseline before folate therapy, basic vitamin preparation in all
[9] = after 3 weeks (3 w) of therapy, 15 mg FTHF or MTHF, 7.5 mg PGA per day plus basic vitamin preparation
[10] = after 6 weeks (6 w) of therapy, 15 mg FTHF or MTHF, 7.5 mg PGA per day plus basic vitamin preparation

SMILES	SAA matched pair analysis, significance of difference [1, 4]	SAA matched pair analysis, significance of difference [1, 5]	SAA matched pair analysis, significance of difference [1, 6]	SAA MW (mean) [1, 7]	SAA Median [1, 7]	SAA MW (mean) ([1]; after 3 weeks (3 w) of therapy)	SAA Median ([1]; after 3 weeks (3 w) of therapy)	SAA MW (mean) ([1]; after 6 weeks (6 w) of therapy)	SAA Median ([1]; after 6 weeks (6 w) of therapy)	CRP matched pair analysis, significance of difference (C-reactive protein (CRP); [4])	CRP matched pair analysis, significance of difference (C-reactive protein (CRP); [5])	CRP matched pair analysis, significance of difference (C-reactive protein (CRP); [6])	CRP Median (C-reactive protein (CRP); [7])	CRP MW (mean) (C-reactive protein (CRP); [8])	CRP Median (C-reactive protein (CRP); after 3 weeks (3 w) of therapy)	CRP MW (mean) (C-reactive protein (CRP); [9])	CRP Median (C-reactive protein (CRP); after 6 weeks (6 w) of therapy)	CRP MW (mean) (C-reactive protein (CRP); [10])	Hcys matched pair analysis, significance of difference [2, 4]	Hcys matched pair analysis, significance of difference [2, 5]	other results
Nc1nc2ncc(CNc3ccc(C(=O)N[C@@H](CCC(=O)O)C(=O)O)cc3)nc2c(=O)[nH]1 [PGA, folic acid]	* (p < 0.05)	Ø	Ø	11 mg/L	7 mg/L	12 mg/L	6 mg/L	13 mg/L	10 mg/L	Ø	Ø	Ø	7 mg/L	10 mg/L	8 mg/L	10 mg/L	6 mg/L	9 mg/L	Ø	* (p < 0.05)	Hcys matched pair analysis, significance of difference [2, 6]: * (p < 0.05)
Nc1nc2c(c(=O)[nH]1)N(C=O)[C@H](CNc1ccc(C(=O)N[C@@H](CCC(=O)O)C(=O)O)cc1)CN2 (mixture of isomers) [FTHF, 5-formyl-(6R,S)-tetrahydrofolic acid]	* (p < 0.05)	* (p < 0.05)	Ø	28 mg/L	6 mg/L	8 mg/L	4 mg/L	35 mg/L	6 mg/L	Ø	* (p < 0.05)	Ø	9 mg/L	16 mg/L	5 mg/L	9 mg/L	6 mg/L	18 mg/L	Ø	* (p < 0.05)	Hcys matched pair analysis, significance of difference [2, 6]: ** (p < 0.01)
CN1c2c(nc(N)[nH]c2=O)NC[C@H]1CNc1ccc(C(=O)N[C@@H](CCC(=O)O)C(=O)O)cc1 (mixture of isomers) [MTHF, 5-methyl-(6R,S)-tetrahydrofolic acid]	Ø	Ø	Ø	34 mg/L	11 mg/L	19 mg/L	10 mg/L	13 mg/L	9 mg/L	* (p < 0.05)	* (p < 0.05)	** (p < 0.01)	11 mg/L	19 mg/L	8 mg/L	11 mg/L	7 mg/L	9 mg/L	Ø	Ø	effect on inflammation markers CRP and SAA (acute phase response), in words [3]: reduce the acute phase response; effect on inflammation markers CRP and SAA (acute phase response), in words ([3]; listed as 5-methyl-(6R,S)-tetahydrofolic acid): most pronounced decrease in inflammation markers; Hcys matched pair analysis, significance of difference [2, 6]: * (p < 0.05)

Source: patent publication US20100179095A1, “USE OF FOLATES FOR PRODUCING A PREPARATION SUITABLE FOR PREVENTING AND TREATING INFLAMMATION AND DISEASES ASSOCIATED WITH INFLAMMATION, ESPECIALLY FOR INFLUENCING THE INFLAMMATION MARKERS CRP AND SAA” (priority 2002, published 2010)
